Test results from publication PMC11637875, “Discovery of novel PARP1/NRP1 dual-targeting inhibitors with strong antitumor potency” (Frontiers in Pharmacology, 2024).

What was measured:
KIT = KIT (Homo sapiens, UniProt P10721); assay: Selectivity profile (123 kinase panel); format: biochemical
FRK = FRK (Homo sapiens, UniProt P42685); assay: Selectivity profile (123 kinase panel); format: biochemical
MLK1 = MLK1 (Homo sapiens, UniProt P80192); assay: Selectivity profile (123 kinase panel); format: biochemical
FLT1 = FLT1 (Homo sapiens, UniProt P17948); assay: Selectivity profile (123 kinase panel); format: biochemical
CK1α = CK1α (Homo sapiens, UniProt P48729); assay: Selectivity profile (123 kinase panel); format: biochemical
Erk1 = Erk1 (Homo sapiens, UniProt P27361); assay: Selectivity profile (123 kinase panel); format: biochemical
Sequence of Erk1 (P27361 whole entry, species assumed): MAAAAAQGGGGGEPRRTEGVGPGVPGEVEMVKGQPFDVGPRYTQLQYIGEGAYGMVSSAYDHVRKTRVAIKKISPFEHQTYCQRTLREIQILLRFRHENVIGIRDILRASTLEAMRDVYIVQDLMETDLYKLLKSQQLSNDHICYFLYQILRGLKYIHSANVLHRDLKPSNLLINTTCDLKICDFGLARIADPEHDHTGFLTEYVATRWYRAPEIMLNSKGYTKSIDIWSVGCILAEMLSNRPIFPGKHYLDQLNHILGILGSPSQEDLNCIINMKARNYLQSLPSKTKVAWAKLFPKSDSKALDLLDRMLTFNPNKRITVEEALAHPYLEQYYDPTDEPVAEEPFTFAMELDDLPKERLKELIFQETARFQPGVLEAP

AMPKα2/β1/γ1 = AMPKα2/β1/γ1 (Homo sapiens, UniProt P54619+P54646+Q9Y478); assay: Selectivity profile (123 kinase panel); format: biochemical
EPHA4 = EPHA4 (Homo sapiens, UniProt P54764); assay: Selectivity profile (123 kinase panel); format: biochemical
NEK2 = NEK2 (Homo sapiens, UniProt P51955); assay: Selectivity profile (123 kinase panel); format: biochemical
CK1δ = CK1δ (Homo sapiens, UniProt P48730); assay: Selectivity profile (123 kinase panel); format: biochemical
EPHB4 = EPHB4 (Homo sapiens, UniProt P54760); assay: Selectivity profile (123 kinase panel); format: biochemical
AKT2 = AKT2 (Homo sapiens, UniProt P31751); assay: Selectivity profile (123 kinase panel); format: biochemical
CaMK2α = CaMK2α (Homo sapiens, UniProt Q9UQM7); assay: Selectivity profile (123 kinase panel); format: biochemical
INSR = INSR (Homo sapiens, UniProt P06213); assay: Selectivity profile (123 kinase panel); format: biochemical
ACK = ACK (Homo sapiens, UniProt Q07912); assay: Selectivity profile (123 kinase panel); format: biochemical
Sequence of ACK (Q07912 whole entry): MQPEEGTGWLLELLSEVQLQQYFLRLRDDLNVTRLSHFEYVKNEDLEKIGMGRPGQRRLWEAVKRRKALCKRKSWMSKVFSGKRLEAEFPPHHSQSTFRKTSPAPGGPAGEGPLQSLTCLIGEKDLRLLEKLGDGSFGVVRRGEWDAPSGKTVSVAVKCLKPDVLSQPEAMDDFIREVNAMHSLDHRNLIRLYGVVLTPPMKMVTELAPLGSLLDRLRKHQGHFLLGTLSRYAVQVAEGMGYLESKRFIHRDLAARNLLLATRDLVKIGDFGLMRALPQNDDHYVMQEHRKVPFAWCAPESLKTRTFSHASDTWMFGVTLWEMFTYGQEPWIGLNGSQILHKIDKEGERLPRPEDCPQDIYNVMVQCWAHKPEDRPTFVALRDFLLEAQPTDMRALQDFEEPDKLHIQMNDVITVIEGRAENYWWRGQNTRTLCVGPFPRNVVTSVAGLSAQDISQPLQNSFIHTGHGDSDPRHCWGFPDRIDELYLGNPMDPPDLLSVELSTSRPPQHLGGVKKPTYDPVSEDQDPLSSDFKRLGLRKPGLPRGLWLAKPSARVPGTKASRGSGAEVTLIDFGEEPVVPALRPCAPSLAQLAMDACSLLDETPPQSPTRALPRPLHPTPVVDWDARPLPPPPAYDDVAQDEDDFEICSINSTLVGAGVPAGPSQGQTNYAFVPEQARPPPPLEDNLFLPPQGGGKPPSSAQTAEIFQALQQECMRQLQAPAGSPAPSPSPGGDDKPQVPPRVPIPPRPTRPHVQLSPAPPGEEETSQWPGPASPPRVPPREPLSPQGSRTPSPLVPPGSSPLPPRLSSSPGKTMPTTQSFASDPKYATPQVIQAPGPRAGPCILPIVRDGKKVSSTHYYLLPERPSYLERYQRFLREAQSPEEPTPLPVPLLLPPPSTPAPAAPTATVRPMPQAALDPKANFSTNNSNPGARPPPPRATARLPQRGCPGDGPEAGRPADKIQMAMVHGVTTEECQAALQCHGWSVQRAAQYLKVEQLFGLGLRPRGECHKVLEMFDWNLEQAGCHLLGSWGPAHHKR

BRSK2 = BRSK2 (Homo sapiens, UniProt Q8IWQ3); assay: Selectivity profile (123 kinase panel); format: biochemical
Sequence of BRSK2 (Q8IWQ3 whole entry): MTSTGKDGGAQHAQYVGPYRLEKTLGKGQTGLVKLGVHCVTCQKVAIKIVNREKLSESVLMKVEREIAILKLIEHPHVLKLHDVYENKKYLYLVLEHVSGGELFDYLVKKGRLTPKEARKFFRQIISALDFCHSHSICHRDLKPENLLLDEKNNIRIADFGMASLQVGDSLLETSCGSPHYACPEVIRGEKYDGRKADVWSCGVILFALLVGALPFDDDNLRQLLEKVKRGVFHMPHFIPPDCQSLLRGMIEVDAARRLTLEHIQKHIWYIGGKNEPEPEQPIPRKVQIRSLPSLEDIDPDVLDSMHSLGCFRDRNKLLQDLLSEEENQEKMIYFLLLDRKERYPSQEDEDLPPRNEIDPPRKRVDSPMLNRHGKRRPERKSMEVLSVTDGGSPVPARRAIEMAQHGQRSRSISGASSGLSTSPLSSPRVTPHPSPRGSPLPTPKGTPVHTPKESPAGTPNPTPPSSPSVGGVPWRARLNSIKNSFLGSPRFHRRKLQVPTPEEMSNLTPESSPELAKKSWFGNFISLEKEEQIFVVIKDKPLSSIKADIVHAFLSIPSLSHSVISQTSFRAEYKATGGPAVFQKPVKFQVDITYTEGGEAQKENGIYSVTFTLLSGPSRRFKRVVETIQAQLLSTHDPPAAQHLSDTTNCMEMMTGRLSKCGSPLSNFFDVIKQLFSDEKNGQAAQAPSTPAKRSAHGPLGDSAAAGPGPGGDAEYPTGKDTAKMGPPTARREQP

IGF1R = IGF1R (Homo sapiens, UniProt P08069); assay: Selectivity profile (123 kinase panel); format: biochemical
FER = FER (Homo sapiens, UniProt P16591); assay: Selectivity profile (123 kinase panel); format: biochemical
Sequence of FER (P16591 whole entry, species assumed): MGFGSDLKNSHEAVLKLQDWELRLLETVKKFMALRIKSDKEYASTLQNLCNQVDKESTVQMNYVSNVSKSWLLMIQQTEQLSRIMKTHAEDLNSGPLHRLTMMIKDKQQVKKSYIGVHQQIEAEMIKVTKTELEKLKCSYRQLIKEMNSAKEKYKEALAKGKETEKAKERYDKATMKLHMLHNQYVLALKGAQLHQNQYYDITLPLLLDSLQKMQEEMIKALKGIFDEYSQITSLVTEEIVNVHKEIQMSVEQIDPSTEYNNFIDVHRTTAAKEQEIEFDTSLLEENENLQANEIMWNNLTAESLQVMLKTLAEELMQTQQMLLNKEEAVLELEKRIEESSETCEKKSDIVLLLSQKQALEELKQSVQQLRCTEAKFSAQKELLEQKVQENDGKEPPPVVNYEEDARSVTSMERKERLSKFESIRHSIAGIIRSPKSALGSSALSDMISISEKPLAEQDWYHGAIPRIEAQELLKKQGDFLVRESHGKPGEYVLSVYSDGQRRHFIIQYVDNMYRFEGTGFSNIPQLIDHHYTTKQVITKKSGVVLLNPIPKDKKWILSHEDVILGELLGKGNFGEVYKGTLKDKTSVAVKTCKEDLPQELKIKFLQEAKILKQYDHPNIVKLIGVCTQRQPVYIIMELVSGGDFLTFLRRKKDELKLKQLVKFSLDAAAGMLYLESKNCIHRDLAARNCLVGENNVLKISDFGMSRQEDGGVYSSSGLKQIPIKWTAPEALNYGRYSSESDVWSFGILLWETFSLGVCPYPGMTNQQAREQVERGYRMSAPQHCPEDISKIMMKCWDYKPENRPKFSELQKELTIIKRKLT

GSK3β = GSK3β (Homo sapiens, UniProt P49841); assay: Selectivity profile (123 kinase panel); format: biochemical
Sequence of GSK3β (P49841 whole entry): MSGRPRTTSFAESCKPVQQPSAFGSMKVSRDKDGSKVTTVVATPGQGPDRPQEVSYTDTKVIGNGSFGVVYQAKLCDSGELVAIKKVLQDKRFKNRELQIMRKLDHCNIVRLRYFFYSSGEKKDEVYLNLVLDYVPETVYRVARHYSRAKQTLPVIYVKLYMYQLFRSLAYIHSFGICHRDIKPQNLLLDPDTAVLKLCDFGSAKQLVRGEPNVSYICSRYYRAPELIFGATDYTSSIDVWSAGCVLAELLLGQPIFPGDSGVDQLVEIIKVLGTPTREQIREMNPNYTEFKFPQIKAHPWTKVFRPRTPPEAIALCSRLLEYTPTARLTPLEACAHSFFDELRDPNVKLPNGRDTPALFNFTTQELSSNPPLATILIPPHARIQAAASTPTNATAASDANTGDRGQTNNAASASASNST

MARK3 = MARK3 (Homo sapiens, UniProt P27448); assay: Selectivity profile (123 kinase panel); format: biochemical
MARK1 = MARK1 (Homo sapiens, UniProt Q9P0L2); assay: Selectivity profile (123 kinase panel); format: biochemical
LYNa = LYNa (Homo sapiens, UniProt P07948); assay: Selectivity profile (123 kinase panel); format: biochemical
FGFR3 = FGFR3 (Homo sapiens, UniProt P22607); assay: Selectivity profile (123 kinase panel); format: biochemical
PARP12 = PARP12 (Homo sapiens, UniProt Q9H0J9); assay: Selectivity profile (other isoforms of PARP and NRP family); format: biochemical
Sequence of PARP12 (Q9H0J9 whole entry, canonical isoform): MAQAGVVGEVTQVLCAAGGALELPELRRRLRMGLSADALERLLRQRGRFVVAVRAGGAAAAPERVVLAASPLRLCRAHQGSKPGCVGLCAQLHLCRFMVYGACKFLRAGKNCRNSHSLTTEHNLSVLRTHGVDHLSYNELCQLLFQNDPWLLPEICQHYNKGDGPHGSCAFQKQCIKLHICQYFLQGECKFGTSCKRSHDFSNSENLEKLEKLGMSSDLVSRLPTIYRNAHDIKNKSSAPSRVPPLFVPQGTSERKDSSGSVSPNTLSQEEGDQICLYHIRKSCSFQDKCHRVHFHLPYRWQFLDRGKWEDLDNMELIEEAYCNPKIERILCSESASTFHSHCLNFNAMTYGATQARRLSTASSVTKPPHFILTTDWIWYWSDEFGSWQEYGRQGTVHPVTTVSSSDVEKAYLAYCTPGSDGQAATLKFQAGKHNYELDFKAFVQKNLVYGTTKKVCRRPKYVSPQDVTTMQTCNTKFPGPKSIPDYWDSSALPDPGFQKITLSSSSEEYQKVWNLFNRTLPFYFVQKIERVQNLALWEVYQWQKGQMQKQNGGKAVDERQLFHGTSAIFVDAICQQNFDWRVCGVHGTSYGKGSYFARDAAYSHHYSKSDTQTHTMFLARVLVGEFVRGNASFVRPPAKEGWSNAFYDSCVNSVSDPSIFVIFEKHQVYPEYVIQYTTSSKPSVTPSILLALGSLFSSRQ

ALK4 = ALK4 (Homo sapiens, UniProt P36896); assay: Selectivity profile (123 kinase panel); format: biochemical
NRP1 = molecular target: T1, NRP1 (Homo sapiens, UniProt O14786); assay: In vitro NRP1 inhibition assay (125I-VEGF-A binding displacement, NRP1-transfected HUVEC cells); conditions: 125I-VEGF-A165 binding competition, 2 h, 4°C
T1 construct: expressed in transfected cells; host or cells: HUVEC, adenovirus NRP1
Experimental: The method was performed as described previously ([Jarvis et al., 2010]). Radiolabeled binding displacement experiments were performed as described previously ([Jia et al., 2006]). Confluent adenovirus NRP1-transfected HUVEC cells in 96-well plates were washed twice with PBS. At 4°C various concentrations of compounds diluted in binding medium (Dulbecco’s modified Eagle’s medium, 25 mM HEPES, pH 7.3, containing 0.1% BSA) were added, followed by addition of the indicated concentration of ^125I-VEGF-A (1,200–1800 Ci/mmol, GE Healthcare, United Kingdom). After 2 h of incubation at 4°C, the medium was aspirated, and washed four times with cold phosphate-buffered saline. The cells were lysed with 0.25 M NaOH, 0.5% SDS solution, and the bound radioactivity of the lysates was measured. IC50 values were calculated from the competition curves of the compounds in the ^125I-VEGF-A165 binding assay using GraphPad Prism 9 software. Using log(inhibitors) vs response-Variable slope equation in the GraphPad Prism 9 to fit the curves. The equation was as follows: (Top and Bottom are the responses, respectively, at the top and bottom of the curve, Y is the inhibitory response at a given compound concentration X, and the Hillslope describes the steepness of the curve.) Y=Bottom+Top−Bottom/1+10^logIC50−xHillslope

HIPK1 = HIPK1 (Homo sapiens, UniProt Q86Z02); assay: Selectivity profile (123 kinase panel); format: biochemical
HIPK3 = HIPK3 (Homo sapiens, UniProt Q9H422); assay: Selectivity profile (123 kinase panel); format: biochemical
ABL2 = ABL2 (Homo sapiens, UniProt P42684); assay: Selectivity profile (123 kinase panel); format: biochemical
HIPK2 = HIPK2 (Homo sapiens, UniProt Q9H2X6); assay: Selectivity profile (123 kinase panel); format: biochemical
HUVECs = assay: Tube formation analysis; format: cell-based, human
Experimental: 50 μL of thawed Matrigel (#356234, BD Biosciences, United States) was added to a 96-well plate and incubated at 37°C for 30 min. After Matrigel gelation, HUVECs (1 × 10^5 cells/mL) were seeded into the basement membrane matrix. Each well was filled with 100 μL of cell suspension. […] Finally, five randomly selected fields per well were photographed with an inverted light microscope. The results were analyzed by ImageJ software to measure and record the number of branch points and tube length for each field. The specific steps are to download the “angiogenesis analyzer” plugin and click on ImageJ, Plugings, Macros, Install, angiogenesis analyzer in sequence. At least three parallel replicates were performed for each condition. The relative number of tubes formation was analyzed using GraphPad Prism 9 software.

Sequence of KIT (P10721 26-976): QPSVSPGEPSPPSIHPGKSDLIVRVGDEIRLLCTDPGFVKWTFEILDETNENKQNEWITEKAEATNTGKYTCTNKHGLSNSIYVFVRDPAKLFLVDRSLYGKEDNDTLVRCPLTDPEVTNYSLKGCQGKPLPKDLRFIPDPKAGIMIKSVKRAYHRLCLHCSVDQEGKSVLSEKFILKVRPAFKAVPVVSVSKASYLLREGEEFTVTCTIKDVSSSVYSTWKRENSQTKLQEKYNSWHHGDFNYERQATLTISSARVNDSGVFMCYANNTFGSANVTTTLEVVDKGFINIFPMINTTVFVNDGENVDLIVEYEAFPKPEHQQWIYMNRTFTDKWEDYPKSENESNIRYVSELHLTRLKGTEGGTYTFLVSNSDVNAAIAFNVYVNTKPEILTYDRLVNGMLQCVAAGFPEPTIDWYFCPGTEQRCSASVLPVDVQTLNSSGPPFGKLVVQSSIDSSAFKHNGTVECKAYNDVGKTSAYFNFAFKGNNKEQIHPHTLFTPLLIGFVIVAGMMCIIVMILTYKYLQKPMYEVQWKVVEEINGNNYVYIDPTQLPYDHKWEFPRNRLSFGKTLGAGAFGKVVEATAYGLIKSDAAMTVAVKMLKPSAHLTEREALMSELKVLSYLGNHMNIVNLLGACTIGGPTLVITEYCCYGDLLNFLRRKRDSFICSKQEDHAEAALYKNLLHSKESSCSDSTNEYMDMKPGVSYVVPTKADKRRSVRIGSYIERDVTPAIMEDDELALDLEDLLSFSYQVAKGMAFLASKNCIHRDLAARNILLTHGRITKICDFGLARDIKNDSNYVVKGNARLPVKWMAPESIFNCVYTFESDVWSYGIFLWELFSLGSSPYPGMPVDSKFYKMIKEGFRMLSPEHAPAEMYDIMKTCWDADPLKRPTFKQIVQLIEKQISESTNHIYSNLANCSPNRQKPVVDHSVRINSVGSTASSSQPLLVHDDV

SMILES: NC(N)=NCCC[C@H](NCN1CCN(C(=O)c2cc(Cc3n[nH]c(=O)c4ccccc34)ccc2F)CC1)C(=O)O [PPNR-4]
- IC50 (KIT): > 10 µM
- IC50 (FRK): > 10 µM
- IC50 (MLK1): > 10 µM
- IC50 (FLT1): > 10 µM
- IC50 (CK1α): > 10 µM
- IC50 (Erk1): > 10 µM
- IC50 (AMPKα2/β1/γ1): > 10 µM
- IC50 (EPHA4): > 10 µM
- IC50 (NEK2): > 10 µM
- IC50 (CK1δ): > 10 µM
- IC50 (EPHB4): > 10 µM
- IC50 (AKT2): > 10 µM
- IC50 (CaMK2α): > 10 µM
- IC50 (INSR): > 10 µM
- IC50 (ACK): > 10 µM
- IC50 (BRSK2): > 10 µM
- IC50 (IGF1R): > 10 µM
- IC50 (FER): > 10 µM
- IC50 (GSK3β): > 10 µM
- IC50 (MARK3): > 10 µM
- IC50 (MARK1): > 10 µM
- IC50 (LYNa): > 10 µM
- IC50 (FGFR3): > 10 µM
- IC50 (PARP12): > 10 µM
- IC50 (ALK4): > 10 µM
- IC50 (NRP1): 0.0245 ± 0.00216 µM
- IC50 (HIPK1): > 10 µM
- IC50 (HIPK3): > 10 µM
- IC50 (ABL2): > 10 µM
- IC50 (HIPK2): > 10 µM
- tube formation (HUVECs; 2, 6, and 18 μM, compared with the control group): significantly interfered with tube formation in a dose-dependent manner
- activity at 6 µM (HUVECs; Homo sapiens, HUVEC, 8 h, 6 μM, 8 h, single replicates, read-out: Relative number of tube formations (% of control)): 6%
- activity at 18 µM (HUVECs; Homo sapiens, HUVEC, 8 h, 18 μM, 8 h, single replicates, read-out: Relative number of tube formations (% of control)): 0%
